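Step 1: Grow cells in 96-well plates. Step 2: Expose to compound for 48 hours at 5 concentrations. Step 3: Interpolate endpoints linearly; if unreached, use highest concentration. Here, GI50 denotes the concentration required for 50% inhibition of growth.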 Calls of active or inactive are those of the source. Rule as the data show it: active = GI50 up to about 1.1 µM and inactive = higher.
Key:
Test in all cases: DTP human tumour cell line panel, 48 h
[1] = system: A549
[2] = system: CCRF-CEM
[3] = system: DU-145
[4] = system: EKVX
[5] = system: HCT-116
[6] = system: HOP-62
[7] = system: HT-29
[8] = system: KM-20L2
[9] = system: LOX IMVI
[10] = system: M14
[11] = system: MDA-N
[12] = system: NCI-H23
[13] = system: OVCAR-5
[14] = system: PC-3
[15] = system: SN12C
[16] = system: SNB-19
[17] = system: SNB-75
[18] = system: SR
[19] = system: SW-620
[20] = system: OVCAR-8

| SMILES | GI50 [1] | GI50 [2] | GI50 [3] | GI50 [4] | GI50 [5] | GI50 [6] | GI50 [7] | GI50 [8] | GI50 [9] | GI50 [10] | GI50 [11] | GI50 [12] | GI50 [13] | GI50 [14] | GI50 [15] | GI50 [16] | GI50 [17] | GI50 [18] | GI50 [19] | GI50 [20] |
| --- | --- | --- | --- | --- | --- | --- | --- | --- | --- | --- | --- | --- | --- | --- | --- | --- | --- | --- | --- | --- |
| O=[N+]([O-])c1cccc2nc3ccccc3c(NCCO)c12 | 0.0034 µM (active) | 0.00989 µM (active) | 0.0036 µM (active) | 0.00111 µM (active) | 0.00202 µM (active) | 0.000539 µM (active) | 0.000108 µM (active) | 0.000121 µM (active) | 0.00418 µM (active) | 0.000243 µM (active) | 0.002 µM (active) | 0.00194 µM (active) | 0.00219 µM (active) | 0.00378 µM (active) | 0.00197 µM (active) | 0.00977 µM (active) | 0.00164 µM (active) | 2.36e-05 µM (active) | 0.00118 µM (active) |  |
| CCNCC(=O)O[C@]1(CC)C(=O)OCc2c1cc1n(c2=O)Cc2cc3ccccc3nc2-1 | 0.157 µM (active) | 0.0142 µM (active) | 0.0465 µM (active) | 2.44 µM (inactive) | 0.342 µM (active) | 0.0275 µM (active) | 0.889 µM (active) | 1.14 µM (inactive) | 0.0893 µM (active) | 0.163 µM (active) | 1.36 µM (inactive) | 0.0849 µM (active) | 0.811 µM (active) | 0.741 µM (active) | 0.0619 µM (active) | 0.108 µM (active) | 0.284 µM (active) | < 0.0118 µM (active) | 0.434 µM (active) | 0.27 µM (active) |
| COc1ccc(/C=C2\C(=O)NC(=O)c3ccccc32)cc1OC | 48.2 µM (inactive) | 1.09 µM (active) | > 100 µM (inactive) | 31.6 µM (inactive) | 6.78 µM (inactive) | 32.5 µM (inactive) | 54.8 µM (inactive) | 5.07 µM (inactive) | 10.5 µM (inactive) | 57.5 µM (inactive) | > 43.6 µM (inactive) | 49.8 µM (inactive) | 60.8 µM (inactive) | 45.2 µM (inactive) | 42.3 µM (inactive) | 25.5 µM (inactive) | 37.4 µM (inactive) | 2.42 µM (inactive) | 16.6 µM (inactive) | 10.1 µM (inactive) |
| O=C(C(O)c1cn(Cc2ccccc2)c2ccccc12)N1CCCCC1 (stereo not given) | 45 µM (inactive) | 67.1 µM (inactive) |  | 54.6 µM (inactive) | > 100 µM (inactive) | > 100 µM (inactive) | > 100 µM (inactive) | 38.8 µM (inactive) | > 100 µM (inactive) | > 100 µM (inactive) |  | > 10 µM (inactive) | > 100 µM (inactive) |  | 82.6 µM (inactive) | > 100 µM (inactive) | > 100 µM (inactive) | > 100 µM (inactive) | > 100 µM (inactive) | > 100 µM (inactive) |
| COc1c(O)c(O)cc2c1-c1ccc(OC)c(=O)cc1C(NC(C)=O)CC2 (stereo not given) | 37.4 µM (inactive) | 3.72 µM (inactive) | 12.3 µM (inactive) | 25.5 µM (inactive) | 3.94 µM (inactive) | 7.6 µM (inactive) | 3.07 µM (inactive) | 2.7 µM (inactive) | 4.84 µM (inactive) | 3.78 µM (inactive) | 1.69 µM (inactive) | 3.95 µM (inactive) | 40 µM (inactive) | 6.62 µM (inactive) | 8.95 µM (inactive) | 5.51 µM (inactive) | 4.24 µM (inactive) | 3.24 µM (inactive) | 4.41 µM (inactive) | 7.55 µM (inactive) |
| O=C1C=C(Nc2ccc(S(=O)(=O)Nc3ncccn3)cc2)c2ccccc2C1=O | 25.3 µM (inactive) | 26.3 µM (inactive) |  | 24.7 µM (inactive) | 18.9 µM (inactive) | 24.5 µM (inactive) | 22.6 µM (inactive) | 28.7 µM (inactive) | 15.8 µM (inactive) | 18.2 µM (inactive) |  | 17.4 µM (inactive) | 19.5 µM (inactive) |  | 21.5 µM (inactive) | 31.2 µM (inactive) | 25.1 µM (inactive) | 8.53 µM (inactive) | 19.5 µM (inactive) | 20.2 µM (inactive) |
| COC(=O)C1=CO[C@@H](OC2CC(CO)C(O)C(O)C2O)[C@@H]2[C@@H](C)[C@@H](OC(=O)/C=C/c3ccccc3)[C@@H](O)[C@H]12.COC(=O)C1=CO[C@@H](OC2CC(CO)C(O)C(O)C2O)[C@@H]2[C@@H](C)[C@@H](OC(=O)c3ccccc3)[C@@H](O)[C@H]12 (stereo not given in full) | > 100 µM (inactive) | > 100 µM (inactive) |  | > 100 µM (inactive) | > 100 µM (inactive) | > 100 µM (inactive) | > 100 µM (inactive) | > 100 µM (inactive) | > 100 µM (inactive) | > 100 µM (inactive) |  | > 100 µM (inactive) | > 100 µM (inactive) |  | > 100 µM (inactive) | 10 µM (inactive) | > 100 µM (inactive) | 66.7 µM (inactive) | > 100 µM (inactive) | > 100 µM (inactive) |

From ChEMBL document CHEMBL1201862, “PubChem BioAssay data set” (2004)
